# Results taken from patent US10597388B2, “Pyridazinone herbicides” (FMC CORPORATION, priority 2014, dated 2020).
# How the values were obtained:
# Assay in all cases: Test D controlled growth environment herbicide test, pre- and postemergence
# Assay type in all cases: in vivo
# [1] = system: field violet (Viola arvensis)
# Description: (§1) Seeds of plant species selected from bluegrass (annual bluegrass, Poa annua), blackgrass (Alopecurus myosuroides), Canada thistle (Cirsium arvense), canarygrass (Phalaris minor), chickweed (common chickweed, Stellaria media), geranium, cutleaf (cutleaf geranium, Geranium dissectum), galium (catchweed bedstraw, Galium aparine), bromegrass, downy (downy bromegrass, Bromus tectorum), field poppy (Papaver rhoeas), field violet (Viola arvensis), foxtail, green (green foxtail, Setaria viridis), deadnettle (henbit deadnettle, Lamium amplexicaule), ryegrass, Italian (Italian ryegrass, Lolium multiflorum), kochia (Kochia scoparia), lambsquarters (Chenopodium album), oilseed rape (Brassica napus), pigweed (Amaranthus retroflexus), chamomile (scentless chamomile, Matricaria inodora), Russian thistle (Salsola kali), speedwell (bird's-eye speedwell, Veronica persica), barley, spring (spring barley, Hordeum vulgare), wheat, spring (spring wheat, Triticum aestivum), buckwheat, wild (wild buckwheat, Polygonum convolvulus), mustard, wild (wild mustard, Sinapis arvensis), oat, wild (wild oat, Avena fatua), radish, wild (wild radish, Raphanus raphanistrum), windgrass (Apera spica-venti), barley, winter (winter barley, Hordeum vulgare), and wheat, winter (winter wheat, Triticum aestivum) were planted into a silt loam soil and treated preemergence with test chemicals formulated in a non-phytotoxic solvent mixture which included a surfactant.
# (§2) At the same time, these species were planted in pots containing Redi-Earth® planting medium (Scotts Company, 14111 Scottslawn Road, Marysville, Ohio 43041) comprising spaghnum peat moss, vermiculite, wetting agent and starter nutrients and treated with postemergence applications of the test chemicals formulated in the same manner. Plants ranged in height from 2 to 18 cm (1- to 4-leaf stage). Treated plants and controls were maintained in a controlled growth environment for 14 to 21 d after which time all species were compared to controls and visually evaluated. Plant response ratings, summarized in Table D, are based on a scale of 0 to 100 where 0 is no effect and 100 is complete control. A dash (-) response means no test result.
# [2] = system: blackgrass (Alopecurus myosuroides)
# Description: as §1, §2
# [3] = system: Russian thistle (Salsola kali)
# Description: as §1, §2
# [4] = system: lambsquarters (Chenopodium album)
# Description: as §1, §2
# [5] = system: ryegrass, Italian (Italian ryegrass, Lolium multiflorum)
# Description: as §1, §2
# [6] = system: wheat, winter (winter wheat, Triticum aestivum)
# Description: as §1, §2
# [7] = system: deadnettle (henbit deadnettle, Lamium amplexicaule)
# Description: as §1, §2
# [8] = system: windgrass (Apera spica-venti)
# Description: as §1, §2
# [9] = system: wheat, spring (spring wheat, Triticum aestivum)
# Description: as §1, §2
# [10] = system: foxtail, green (green foxtail, Setaria viridis)
# Description: as §1, §2
# [11] = system: chickweed (common chickweed, Stellaria media)
# Description: as §1, §2
# [12] = system: canarygrass (Phalaris minor)
# Description: as §1, §2
# kochia (Kochia scoparia) = system: kochia (Kochia scoparia)
# Description: as §1, §2
# [13] = Postemergence, 31 g ai/ha, scale 0 to 100 (0 no effect, 100 complete control)
# [14] = Postemergence, 125 g ai/ha, visual rating on scale 0 (no effect) to 100 (complete control), 14 to 21 d
# [15] = Postemergence, 250 g ai/ha, scale 0 to 100 (0 no effect, 100 complete control)
# [16] = Preemergence, 62 g ai/ha, scale 0 to 100 (0 no effect, 100 complete control)
# [17] = Preemergence, 125 g ai/ha, scale 0 to 100 (0 no effect, 100 complete control)
# [18] = Preemergence, 250 g ai/ha, scale 0 to 100 (0 no effect, 100 complete control)
# [19] = postemergence, 62 g ai/ha, scale 0 to 100, 0 no effect, 100 complete control
compound,measurement,setting,value
CCC(=O)Oc1c(C)nn(C)c(=O)c1-c1c(C)sc2c(C)cc(C)cc12 [Compound 28],Field Violet plant response rating,[1]; [13],80
same,"Plant response rating, Field Violet",[1]; [14],85
same,"Plant response rating, Field Violet",[1]; [15],90
same,"Plant response rating (scale of 0 to 100), Field Violet","[1]; Preemergence, 31 g ai/ha",75
same,"Plant response rating, Field Violet",[1]; [16],85
same,"Plant response rating, Field Violet",[1]; [17],100
same,"Plant response rating, Field Violet",[1]; [18],100
same,"Plant response rating, Field Violet",[1]; [19],75
same,Blackgrass plant response rating,[2]; [13],75
same,"Plant response rating, Blackgrass",[2]; [14],85
same,"Plant response rating, Blackgrass",[2]; [15],85
same,"Plant response rating (scale of 0 to 100), Blackgrass","[2]; Preemergence, 31 g ai/ha",85
same,"Plant response rating, Blackgrass",[2]; [16],85
same,"Plant response rating, Blackgrass",[2]; [17],85
same,Blackgrass plant response rating,[2]; [18],95
same,"Plant response rating, Blackgrass",[2]; [19],80
same,Russian Thistle plant response rating,[3]; [13],70
same,"Plant response rating, Russian Thistle",[3]; [14],80
same,"Plant response rating, Russian Thistle",[3]; [15],85
same,"Plant response rating (scale of 0 to 100), Russian Thistle","[3]; Preemergence, 31 g ai/ha",0
same,"Plant response rating, Russian Thistle",[3]; [16],0
same,"Plant response rating, Russian Thistle",[3]; [17],15
same,"Plant response rating, Russian Thistle",[3]; [18],35
same,"Plant response rating, Russian Thistle",[3]; [19],75
same,Lambsquarters plant response rating,[4]; [13],80
same,"Plant response rating, Lambsquarters",[4]; [14],90
same,"Plant response rating, Lambsquarters",[4]; [15],90
same,"Plant response rating (scale of 0 to 100), Lambsquarters","[4]; Preemergence, 31 g ai/ha",100
same,"Plant response rating, Lambsquarters",[4]; [16],100
same,"Plant response rating, Lambsquarters",[4]; [17],100
same,"Plant response rating, Lambsquarters",[4]; [18],100
same,"Plant response rating, Lambsquarters",[4]; [19],85
same,"Ryegrass, Italian plant response rating",[5]; [13],75
same,"Plant response rating, Ryegrass, Italian",[5]; [14],80
same,"Plant response rating, Ryegrass, Italian",[5]; [15],85
same,"Plant response rating (scale of 0 to 100), Ryegrass, Italian","[5]; Preemergence, 31 g ai/ha",90
same,"Plant response rating, Ryegrass, Italian",[5]; [16],95
same,"Plant response rating, Ryegrass, Italian",[5]; [17],100
same,"Plant response rating, Ryegrass, Italian",[5]; [18],100
same,"Plant response rating, Ryegrass, Italian",[5]; [19],80
same,"Wheat, Winter plant response rating",[6]; [13],5
same,"Plant response rating, Wheat, Winter",[6]; [14],5
same,"Plant response rating, Wheat, Winter",[6]; [15],15
same,"Plant response rating (scale of 0 to 100), Wheat, Winter","[6]; Preemergence, 31 g ai/ha",0
same,"Plant response rating, Wheat, Winter",[6]; [16],0
same,"Plant response rating, Wheat, Winter",[6]; [17],0
same,"Plant response rating, Wheat, Winter",[6]; [18],0
same,"Plant response rating, Wheat, Winter",[6]; [19],5
same,Deadnettle plant response rating,[7]; [13],10
same,"Plant response rating, Deadnettle",[7]; [14],35
same,"Plant response rating, Deadnettle",[7]; [15],70
same,"Plant response rating (scale of 0 to 100), Deadnettle","[7]; Preemergence, 31 g ai/ha",0
same,"Plant response rating, Deadnettle",[7]; [16],0
same,"Plant response rating, Deadnettle",[7]; [17],5
same,"Plant response rating, Deadnettle",[7]; [18],5
same,"Plant response rating, Deadnettle",[7]; [19],35
same,Windgrass plant response rating,[8]; [13],70
same,"Plant response rating, Windgrass",[8]; [14],85
same,"Plant response rating, Windgrass",[8]; [15],85
same,"Plant response rating (scale of 0 to 100), Windgrass","[8]; Preemergence, 31 g ai/ha",70
same,"Plant response rating, Windgrass",[8]; [16],75
same,"Plant response rating, Windgrass",[8]; [17],90
same,"Plant response rating, Windgrass",[8]; [18],100
same,"Plant response rating, Windgrass",[8]; [19],80
same,"Wheat, Spring plant response rating",[9]; [13],0
same,"Plant response rating, Wheat, Spring",[9]; [14],10
same,"Plant response rating, Wheat, Spring",[9]; [15],20
same,"Plant response rating (scale of 0 to 100), Wheat, Spring","[9]; Preemergence, 31 g ai/ha",0
same,"Plant response rating, Wheat, Spring",[9]; [16],0
same,"Plant response rating, Wheat, Spring",[9]; [17],5
same,"Plant response rating, Wheat, Spring",[9]; [18],25
same,"Plant response rating, Wheat, Spring",[9]; [19],5
same,"Foxtail, Green plant response rating",[10]; [13],65
same,"Plant response rating, Foxtail, Green",[10]; [14],85
same,"Plant response rating, Foxtail, Green",[10]; [15],90
same,"Plant response rating (scale of 0 to 100), Foxtail, Green","[10]; Preemergence, 31 g ai/ha",70
same,"Plant response rating, Foxtail, Green",[10]; [16],80
same,"Plant response rating, Foxtail, Green",[10]; [17],100
same,"Plant response rating, Foxtail, Green",[10]; [18],100
same,"Plant response rating, Foxtail, Green",[10]; [19],75
same,Chickweed plant response rating,[11]; [13],100
same,"Plant response rating, Chickweed",[11]; [14],100
same,"Plant response rating, Chickweed",[11]; [15],100
same,"Plant response rating (scale of 0 to 100), Chickweed","[11]; Preemergence, 31 g ai/ha",100
same,"Plant response rating, Chickweed",[11]; [16],100
same,"Plant response rating, Chickweed",[11]; [17],100
same,"Plant response rating, Chickweed",[11]; [18],100
same,"Plant response rating, Chickweed",[11]; [19],100
same,Canarygrass plant response rating,[12]; [13],75
same,"Plant response rating, Canarygrass",[12]; [14],80
same,"Plant response rating, Canarygrass",[12]; [15],85
same,"Plant response rating (scale of 0 to 100), Canarygrass","[12]; Preemergence, 31 g ai/ha",85
same,"Plant response rating, Canarygrass",[12]; [16],85
same,"Plant response rating, Canarygrass",[12]; [17],95
same,"Plant response rating, Canarygrass",[12]; [18],95
same,"Plant response rating, Canarygrass",[12]; [19],75
same,Kochia plant response rating,kochia (Kochia scoparia); [13],35
same,"Plant response rating, Kochia",kochia (Kochia scoparia); [14],50
same,"Plant response rating, Kochia",kochia (Kochia scoparia); [15],75
same,"Plant response rating (scale of 0 to 100), Kochia","kochia (Kochia scoparia); Preemergence, 31 g ai/ha",20
same,"Plant response rating, Kochia",kochia (Kochia scoparia); [16],20
same,"Plant response rating, Kochia",kochia (Kochia scoparia); [17],30
same,"Plant response rating, Kochia",kochia (Kochia scoparia); [18],65
same,"Plant response rating, Kochia",kochia (Kochia scoparia); [19],40
